Tests used:
Prothrombin = Prothrombin (Homo sapiens, UniProt P00734); experiment: Binding affinity to human thrombin assessed as release of p-nitroaniline after 10 to 120 mins by spectrophotometric analysis
[1] = Binding affinity to New Zealand White rabbit plasma kallikrein assessed as release of p-nitroaniline after 10 to 120 mins by spectrophotometric analysis; type: cell-free, Oryctolagus cuniculus
Plasma [2] = experiment: Anticoagulant activity in New Zealand White rabbit plasma assessed as concentration required to double activated partial thromboplastin time; type: functional, Oryctolagus cuniculus
Plasminogen = Plasminogen (Homo sapiens, UniProt P00747); experiment: Binding affinity to human plasmin assessed as release of p-nitroaniline after 10 to 120 mins by spectrophotometric analysis
Sequence of Plasminogen (P00747 97-580 limits assumed): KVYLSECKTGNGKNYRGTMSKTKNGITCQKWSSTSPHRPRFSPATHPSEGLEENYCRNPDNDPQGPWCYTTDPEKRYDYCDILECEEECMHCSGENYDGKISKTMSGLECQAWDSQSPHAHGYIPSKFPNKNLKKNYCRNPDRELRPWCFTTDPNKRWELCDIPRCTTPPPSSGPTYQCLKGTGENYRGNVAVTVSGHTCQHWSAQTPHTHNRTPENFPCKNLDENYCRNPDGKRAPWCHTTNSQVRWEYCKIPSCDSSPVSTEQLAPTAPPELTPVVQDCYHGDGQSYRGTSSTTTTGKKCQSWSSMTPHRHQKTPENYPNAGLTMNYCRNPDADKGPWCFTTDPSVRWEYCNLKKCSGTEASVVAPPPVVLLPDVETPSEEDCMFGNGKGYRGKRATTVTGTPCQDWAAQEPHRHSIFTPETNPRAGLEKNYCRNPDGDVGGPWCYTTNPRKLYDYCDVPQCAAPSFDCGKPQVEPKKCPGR
Sequence of Plasminogen (P00747 581-810 limits assumed): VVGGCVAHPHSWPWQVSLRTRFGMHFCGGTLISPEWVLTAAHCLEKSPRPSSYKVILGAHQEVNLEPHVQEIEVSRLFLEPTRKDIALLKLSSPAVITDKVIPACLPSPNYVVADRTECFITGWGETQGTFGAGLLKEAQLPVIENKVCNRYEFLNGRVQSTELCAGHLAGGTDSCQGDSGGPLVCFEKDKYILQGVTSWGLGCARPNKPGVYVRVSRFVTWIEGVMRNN

[3] = target: Urokinase-type plasminogen activator (Homo sapiens, UniProt P00749); experiment: Binding affinity to human urokinase assessed as release of p-nitroaniline after 10 to 120 mins by spectrophotometric analysis
[4] = target: Vitamin K-dependent protein C (Homo sapiens, UniProt P04070); experiment: Binding affinity to human activated protein C assessed as release of p-nitroaniline after 10 to 120 mins by spectrophotometric analysis
Sequence of Vitamin K-dependent protein C (P04070 43-197 limits assumed): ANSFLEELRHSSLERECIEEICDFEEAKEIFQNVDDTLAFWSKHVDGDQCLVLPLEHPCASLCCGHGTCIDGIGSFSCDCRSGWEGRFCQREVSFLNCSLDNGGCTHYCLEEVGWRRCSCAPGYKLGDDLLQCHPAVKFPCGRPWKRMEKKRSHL
Sequence of Vitamin K-dependent protein C (P04070 212-461 limits assumed): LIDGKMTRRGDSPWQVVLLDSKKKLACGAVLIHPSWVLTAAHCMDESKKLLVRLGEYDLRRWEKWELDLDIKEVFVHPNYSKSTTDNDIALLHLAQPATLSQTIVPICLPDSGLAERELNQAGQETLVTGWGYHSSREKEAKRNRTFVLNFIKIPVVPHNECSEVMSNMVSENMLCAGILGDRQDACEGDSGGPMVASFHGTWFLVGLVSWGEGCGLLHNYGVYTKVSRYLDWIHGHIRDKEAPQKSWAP

Coagulation factor VII = target: T1, Coagulation factor VII (Homo sapiens, UniProt P08709); experiment: Binding affinity to human factor 7a assessed as release of p-nitroaniline after 10 to 120 mins by spectrophotometric analysis
T1 sequence (P08709 whole entry): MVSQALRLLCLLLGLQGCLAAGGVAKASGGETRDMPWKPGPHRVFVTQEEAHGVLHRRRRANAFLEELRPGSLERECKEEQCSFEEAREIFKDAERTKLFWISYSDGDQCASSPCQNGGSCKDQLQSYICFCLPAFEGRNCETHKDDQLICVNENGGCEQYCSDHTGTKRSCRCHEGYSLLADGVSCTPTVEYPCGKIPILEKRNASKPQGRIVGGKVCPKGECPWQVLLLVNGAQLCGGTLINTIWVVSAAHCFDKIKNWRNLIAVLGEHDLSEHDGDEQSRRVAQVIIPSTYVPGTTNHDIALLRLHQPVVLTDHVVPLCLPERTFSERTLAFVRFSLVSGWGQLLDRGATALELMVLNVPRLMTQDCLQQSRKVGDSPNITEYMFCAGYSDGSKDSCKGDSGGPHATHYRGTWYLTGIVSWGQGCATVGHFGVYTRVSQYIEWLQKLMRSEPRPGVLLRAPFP

[5] = target: Tissue-type plasminogen activator (Homo sapiens, UniProt P00750); experiment: Binding affinity to human tPA assessed as release of p-nitroaniline after 10 to 120 mins by spectrophotometric analysis
Sequence of Tissue-type plasminogen activator (P00750 whole entry): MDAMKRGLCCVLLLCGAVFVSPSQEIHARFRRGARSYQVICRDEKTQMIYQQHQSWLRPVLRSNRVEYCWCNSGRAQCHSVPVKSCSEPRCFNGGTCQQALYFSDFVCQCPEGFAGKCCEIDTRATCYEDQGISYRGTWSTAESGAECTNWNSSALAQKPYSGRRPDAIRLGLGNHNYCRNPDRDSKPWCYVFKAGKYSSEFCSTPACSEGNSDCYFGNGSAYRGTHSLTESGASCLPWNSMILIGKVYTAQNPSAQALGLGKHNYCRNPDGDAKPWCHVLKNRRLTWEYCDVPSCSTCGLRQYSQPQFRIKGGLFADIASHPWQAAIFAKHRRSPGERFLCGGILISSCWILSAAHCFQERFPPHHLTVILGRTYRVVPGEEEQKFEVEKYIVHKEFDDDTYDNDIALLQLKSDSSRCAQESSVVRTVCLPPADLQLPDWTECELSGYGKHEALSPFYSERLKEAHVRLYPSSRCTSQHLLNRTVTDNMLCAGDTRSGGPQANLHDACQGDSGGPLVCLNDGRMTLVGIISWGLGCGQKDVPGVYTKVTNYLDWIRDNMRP

[6] = Binding affinity to New Zealand White rabbit factor 7a assessed as release of p-nitroaniline after 10 to 120 mins by spectrophotometric analysis; design: species or system Oryctolagus cuniculus
Oryctolagus cuniculus [7] = experiment: Antithrombotic activity in rabbit arteriovenous-shunt thrombosis model assessed as inhibition of clot formation compound administered as single bolus dose followed by five continuous infusion dose; type: functional
Coagulation factor X [8] = target: Coagulation factor X (Homo sapiens, UniProt P00742); experiment: Binding affinity to human factor 10a assessed as release of p-nitroaniline after 10 to 120 mins by spectrophotometric analysis
Sequence of Coagulation factor X (Homo sapiens, UniProt P00742) (P00742 41-179 limits assumed): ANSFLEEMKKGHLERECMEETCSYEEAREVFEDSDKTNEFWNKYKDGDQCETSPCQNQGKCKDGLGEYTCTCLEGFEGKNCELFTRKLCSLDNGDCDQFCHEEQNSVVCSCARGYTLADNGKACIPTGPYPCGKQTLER
Sequence of Coagulation factor X (Homo sapiens, UniProt P00742) (P00742 235-488 limits assumed): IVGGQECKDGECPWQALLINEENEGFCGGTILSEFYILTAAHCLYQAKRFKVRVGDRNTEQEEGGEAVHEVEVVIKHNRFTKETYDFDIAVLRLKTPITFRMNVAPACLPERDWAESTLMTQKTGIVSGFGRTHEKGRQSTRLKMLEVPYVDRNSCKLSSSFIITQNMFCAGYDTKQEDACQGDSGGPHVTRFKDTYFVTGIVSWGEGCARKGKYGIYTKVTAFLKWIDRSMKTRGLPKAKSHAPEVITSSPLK

Coagulation factor X [9] = target: T2, Coagulation factor X (Oryctolagus cuniculus, UniProt O19045); experiment: Binding affinity to New Zealand White rabbit factor 10a assessed as release of p-nitroaniline after 10 to 120 mins by spectrophotometric analysis
T2 sequence (O19045 whole entry): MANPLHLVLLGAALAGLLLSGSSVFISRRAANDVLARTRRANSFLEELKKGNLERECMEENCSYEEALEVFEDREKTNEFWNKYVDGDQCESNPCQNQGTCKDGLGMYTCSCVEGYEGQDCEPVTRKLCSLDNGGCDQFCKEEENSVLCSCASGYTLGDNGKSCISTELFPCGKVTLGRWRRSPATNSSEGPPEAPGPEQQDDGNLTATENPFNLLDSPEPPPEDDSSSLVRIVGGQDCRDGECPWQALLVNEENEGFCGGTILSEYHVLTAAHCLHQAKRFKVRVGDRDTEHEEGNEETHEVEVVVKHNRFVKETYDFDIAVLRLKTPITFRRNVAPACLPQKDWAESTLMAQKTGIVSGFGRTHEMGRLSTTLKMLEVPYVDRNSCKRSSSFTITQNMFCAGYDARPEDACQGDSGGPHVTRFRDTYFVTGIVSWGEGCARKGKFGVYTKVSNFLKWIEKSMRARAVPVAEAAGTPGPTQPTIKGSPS

Plasma kallikrein = Plasma kallikrein (Homo sapiens, UniProt P03952); experiment: Binding affinity to human plasma kallikrein assessed as release of p-nitroaniline after 10 to 120 mins by spectrophotometric analysis
Sequence of Plasma kallikrein (P03952 20-390 limits assumed): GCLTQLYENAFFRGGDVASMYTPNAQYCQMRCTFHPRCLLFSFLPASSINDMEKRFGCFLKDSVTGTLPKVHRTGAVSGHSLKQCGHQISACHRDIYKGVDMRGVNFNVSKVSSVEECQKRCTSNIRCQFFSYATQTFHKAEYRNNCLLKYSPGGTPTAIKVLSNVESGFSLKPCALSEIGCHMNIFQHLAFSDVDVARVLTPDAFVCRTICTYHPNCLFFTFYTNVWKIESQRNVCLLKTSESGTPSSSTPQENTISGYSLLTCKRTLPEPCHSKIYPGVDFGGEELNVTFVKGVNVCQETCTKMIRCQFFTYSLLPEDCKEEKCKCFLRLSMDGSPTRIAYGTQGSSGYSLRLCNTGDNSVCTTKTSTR
Sequence of Plasma kallikrein (P03952 391-638 limits assumed): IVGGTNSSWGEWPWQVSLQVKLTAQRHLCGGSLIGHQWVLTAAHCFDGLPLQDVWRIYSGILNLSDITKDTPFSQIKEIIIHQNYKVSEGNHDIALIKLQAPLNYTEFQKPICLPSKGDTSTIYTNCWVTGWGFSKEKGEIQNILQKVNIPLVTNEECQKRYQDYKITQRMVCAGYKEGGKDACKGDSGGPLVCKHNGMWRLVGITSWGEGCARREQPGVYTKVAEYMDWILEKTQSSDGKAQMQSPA

Trypsin = Trypsin (Homo sapiens, UniProt P07477+P07478+P35030); experiment: Binding affinity to human trypsin assessed as release of p-nitroaniline after 10 to 120 mins by spectrophotometric analysis; type: protein assay
[10] = Binding affinity to human chymotrypsin assessed as release of p-nitroaniline after 10 to 120 mins by spectrophotometric analysis
Coagulation factor IX = Coagulation factor IX (Homo sapiens, UniProt P00740); experiment: Binding affinity to human factor 9a assessed as release of p-nitroaniline after 10 to 120 mins by spectrophotometric analysis
Sequence of Coagulation factor IX (P00740 47-191 limits assumed): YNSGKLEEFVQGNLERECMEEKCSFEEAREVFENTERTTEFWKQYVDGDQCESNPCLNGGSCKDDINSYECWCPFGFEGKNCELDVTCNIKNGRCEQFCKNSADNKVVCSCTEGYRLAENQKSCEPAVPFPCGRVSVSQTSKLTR
Sequence of Coagulation factor IX (P00740 227-461 limits assumed): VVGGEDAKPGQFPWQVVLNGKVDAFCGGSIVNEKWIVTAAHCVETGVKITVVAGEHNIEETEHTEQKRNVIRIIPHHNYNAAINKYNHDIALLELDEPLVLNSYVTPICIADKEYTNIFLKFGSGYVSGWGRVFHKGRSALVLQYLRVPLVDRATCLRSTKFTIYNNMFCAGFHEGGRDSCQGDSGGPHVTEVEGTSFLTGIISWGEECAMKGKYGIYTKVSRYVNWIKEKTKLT

Coagulation factor XI = Coagulation factor XI (Homo sapiens, UniProt P03951); experiment: Binding affinity to human factor 11a assessed as release of p-nitroaniline after 10 to 120 mins by spectrophotometric analysis
Sequence of Coagulation factor XI (P03951 19-387 limits assumed): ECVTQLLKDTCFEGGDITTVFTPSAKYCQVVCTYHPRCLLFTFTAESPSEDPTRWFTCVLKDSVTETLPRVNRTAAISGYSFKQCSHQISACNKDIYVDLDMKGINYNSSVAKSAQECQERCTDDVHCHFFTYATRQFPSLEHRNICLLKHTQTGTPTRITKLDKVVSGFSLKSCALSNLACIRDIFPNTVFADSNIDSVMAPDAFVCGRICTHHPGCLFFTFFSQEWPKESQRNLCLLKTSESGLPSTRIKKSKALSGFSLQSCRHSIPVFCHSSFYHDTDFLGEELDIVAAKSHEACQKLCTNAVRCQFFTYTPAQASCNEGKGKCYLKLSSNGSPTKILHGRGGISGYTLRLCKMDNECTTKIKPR
Sequence of Coagulation factor XI (P03951 388-625 limits assumed): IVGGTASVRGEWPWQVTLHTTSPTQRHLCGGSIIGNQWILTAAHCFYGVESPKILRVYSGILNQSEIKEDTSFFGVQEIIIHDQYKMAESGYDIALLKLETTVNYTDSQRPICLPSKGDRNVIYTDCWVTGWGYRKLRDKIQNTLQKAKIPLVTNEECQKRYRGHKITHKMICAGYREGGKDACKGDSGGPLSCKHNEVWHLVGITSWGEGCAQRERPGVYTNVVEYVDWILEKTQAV

[11] = Binding affinity to New Zealand White rabbit thrombin assessed as release of p-nitroaniline after 10 to 120 mins by spectrophotometric analysis; design: species or system Oryctolagus cuniculus
Plasma [12] = experiment: Anticoagulant activity in human plasma assessed as concentration required to inhibit double prothrombin time; type: functional
[13] = Binding affinity to New Zealand White rabbit factor 11a assessed as release of p-nitroaniline after 10 to 120 mins by spectrophotometric analysis; design: species or system Oryctolagus cuniculus
Plasma [14] = experiment: Anticoagulant activity in human plasma assessed as concentration required to double activated partial thromboplastin time; type: functional
Oryctolagus cuniculus [15] = experiment: Toxicity in rabbit arteriovenous-shunt thrombosis model assessed as increase in bleeding time compound administered as single bolus dose followed by five continuous infusion dose; type: organism-based; details: in vivo, iv

Molecule `CC(C)CC(=O)Nc1cc(-c2ccc(C(N)=O)cc2C(=O)O)cc(C2CC(C)(c3ccccc3)c3cc(C(=N)N)ccc3N2)c1` (single isomer, unassigned; enantiomer 2) has a Ki (Prothrombin) of 12.6 µM, a Ki [1] of 4.6 nM and an EC (Plasma [2]) of 2400 nM. It also gave a Ki (Plasminogen) of 910 nM, a Ki [3] of 2100 nM and a Ki [4] of 73 nM. It also gave a Ki (Coagulation factor VII) of 629 nM, a Ki [5] of 1700 nM and a Ki [6] of 200 nM. The ID50 (Oryctolagus cuniculus [7]) was 0.95 mg/kg/h, the Ki (Coagulation factor X [8]) was 340 nM and the Ki (Coagulation factor X [9]) was 3.2 µM. It also gave a Ki (Plasma kallikrein) of 4.6 nM, a Ki (Trypsin) of 740 nM and a Ki [10] of 14 µM. The Ki (Coagulation factor IX) was over 20 µM, the Ki (Coagulation factor XI) was 0.2 nM and the Ki [11] was 7.9 µM. It also gave an IC (Plasma [12]) of over 20 µM, a Ki [13] of 0.42 nM and an EC (Plasma [14]) of 2.2 µM. The Activity (Oryctolagus cuniculus [15]) was “Non-toxic”.
